The values that follow come from ChEMBL document CHEMBL1145809, “Novel (2E,4E,6Z)-7-(2-alkoxy-3,5-dialkylbenzene)-3-methylocta-2,4,6-trienoic acid retinoid X receptor modulators are active in models of type 2 diabetes” (J Med Chem, 2003).

The target of assay [1] is T1, Retinoic acid receptor gamma (Homo sapiens, UniProt P13631).
T1 sequence (P13631 whole entry): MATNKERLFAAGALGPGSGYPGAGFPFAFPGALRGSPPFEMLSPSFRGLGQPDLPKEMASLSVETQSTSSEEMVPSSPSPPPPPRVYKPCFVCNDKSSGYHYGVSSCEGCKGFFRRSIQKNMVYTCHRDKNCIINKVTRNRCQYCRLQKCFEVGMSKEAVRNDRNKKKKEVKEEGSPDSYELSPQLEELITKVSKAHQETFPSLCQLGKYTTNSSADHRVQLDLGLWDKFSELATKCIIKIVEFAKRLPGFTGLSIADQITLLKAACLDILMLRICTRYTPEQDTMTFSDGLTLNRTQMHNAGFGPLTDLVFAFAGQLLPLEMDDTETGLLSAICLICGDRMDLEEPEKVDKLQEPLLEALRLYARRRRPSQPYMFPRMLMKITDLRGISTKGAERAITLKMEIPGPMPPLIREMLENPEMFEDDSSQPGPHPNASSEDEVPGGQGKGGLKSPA
Nature of the assay: Binding affinity against Retinoic acid receptor gamma was determined in vitro by using [3H]ATRA as radioligand.

Assay [2] in a line: RXR:RAR synergy expressed as fold induction.
Assay [3] has as its target T2, Retinoic acid receptor RXR-alpha (Homo sapiens, UniProt P19793).
T2 sequence (P19793 whole entry): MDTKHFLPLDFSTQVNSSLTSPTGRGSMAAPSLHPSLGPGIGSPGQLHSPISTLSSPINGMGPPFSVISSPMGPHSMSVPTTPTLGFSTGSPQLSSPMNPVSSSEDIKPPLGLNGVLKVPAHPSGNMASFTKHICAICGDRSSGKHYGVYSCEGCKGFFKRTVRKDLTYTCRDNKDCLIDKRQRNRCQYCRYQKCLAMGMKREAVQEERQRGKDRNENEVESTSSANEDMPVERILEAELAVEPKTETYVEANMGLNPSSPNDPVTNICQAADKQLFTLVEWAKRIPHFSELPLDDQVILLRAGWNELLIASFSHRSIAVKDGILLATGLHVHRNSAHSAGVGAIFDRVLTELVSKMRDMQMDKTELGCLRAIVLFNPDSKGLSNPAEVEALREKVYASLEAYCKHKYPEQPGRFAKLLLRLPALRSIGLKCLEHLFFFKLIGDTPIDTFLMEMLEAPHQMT
Description: Binding affinity against Retinoic acid receptor RXR-alpha was determined in vitro by using [3H]9-cis-RA as radioligand

The target in assay [4] is T2, Retinoic acid receptor RXR-alpha. Nature of the assay: Inhibitory activity against Retinoic acid receptor RXR-alpha antagonist was determined in vitro. Type of assay: functional.
Another assay concerns the target RXR alpha/PPAR gamma (Homo sapiens, UniProt P19793).
Assay [5] has as its target T2, Retinoic acid receptor RXR-alpha. The source holds these as a separate data set.
Description: Inhibition of Retinoic acid receptor RXR-alpha agonist activity in vitro
For assay [6], the species on record is Rattus norvegicus. In words: Effect on triglyceride level in male Dawley rats at 24 hr r. Type of assay: functional.
The subject of assay [7] is Mus musculus. Nature of the assay: In vivo hypoglycemic activity compared to BRL-46953 as reduced plasma glucose in db/db mouse type II diabetes model. Type of assay: functional.
The test system of assay [8] is Mus musculus. Nature of the assay: In vivo hypoglycemic activity, as reduced plasma glucose in db/db mouse type II diabetes model. Type of assay: functional.
For assay [9], the species on record is Rattus norvegicus. In words: Effect on T4 levels in male Dawley rats at 24 hr r. Type of assay: functional.
Assay [10] is described as follows: Transcriptional activation in CV-1 cells expressing RXR and LXR at 1 uM. Type of assay: functional.
Assay [11] addresses T3, Retinoic acid receptor RXR-alpha (Homo sapiens) (UniProt P19793).
T3 sequence (whole entry): T2 sequence (P19793 whole entry)

Molecules are shown by their SMILES. Activity calls are given as the source filed them. The calls are words filed in the database; no cut-off is given here.

In general, Ki refers to the equilibrium dissociation constant of an inhibitor or competing ligand from its target. A low value points to a stronger hold on the target. One may read the IC50 as the concentration at which inhibition is half-maximal. Low readings indicate higher potency, high ones lower potency. What is called EC50 is the concentration at which the effect is half-maximal. Lower therefore signals greater potency.

Sequence of RXR alpha/PPAR gamma (P37231 whole entry, one chain of several): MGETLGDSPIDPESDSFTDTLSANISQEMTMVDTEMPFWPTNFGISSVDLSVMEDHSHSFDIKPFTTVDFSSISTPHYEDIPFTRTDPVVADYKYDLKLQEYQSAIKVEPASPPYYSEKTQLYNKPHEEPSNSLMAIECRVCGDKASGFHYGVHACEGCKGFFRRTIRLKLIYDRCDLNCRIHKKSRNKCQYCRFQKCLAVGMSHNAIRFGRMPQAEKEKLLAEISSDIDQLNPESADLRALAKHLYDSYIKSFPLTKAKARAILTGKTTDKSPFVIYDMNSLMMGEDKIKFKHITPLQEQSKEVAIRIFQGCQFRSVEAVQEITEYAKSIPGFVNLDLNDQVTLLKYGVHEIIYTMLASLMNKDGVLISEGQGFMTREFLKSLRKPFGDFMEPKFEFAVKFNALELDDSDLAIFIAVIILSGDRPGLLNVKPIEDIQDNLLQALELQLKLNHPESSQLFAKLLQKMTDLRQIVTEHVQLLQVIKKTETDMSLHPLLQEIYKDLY
Description for RXR alpha/PPAR gamma: Transcriptional activity against RXR:PPAR-gamma synergy was determined in vitro

Regarding `CCCOc1c(\C(C)=C/C=C/C(C)=C/C(=O)O)cc(C(C)(C)CC)cc1C(C)(C)CC`, the Ki is 10000 nM in [1] and 23 nM in assay [3]. In addition, the Synergy in [2] amounted to 1 fold. This molecule also displayed an IC50 in assay [4] of 13 nM. For the same molecule, the midpoint of the response at RXR alpha/PPAR gamma, the EC50, lay at 19 nM.

For the molecule `C/C(=C/C=C/C(C)=C/C(=O)O)c1cc(C(C)(C)C)cc(C(C)(C)C)c1OCC(F)(F)F`, the Ki in assay [1] came out at 4030 nM. In addition, the Synergy in [2] came out at 1 fold. This molecule returned an IC50 in [4] of 8 nM. At RXR alpha/PPAR gamma, this molecule had a concentration for a half-maximal effect (EC50) of 2 nM.

With `COc1c(\C(C)=C/C=C/C(C)=C/C(=O)O)cc(C(C)C)cc1C(C)C`, the inhibition constant Ki was found to be 10000 nM in assay [1] and 1 nM in assay [3]. Moreover, the Synergy in assay [2] was 10 fold. Besides, the EC50 in [5] stood at 2 nM; on RXR alpha/PPAR gamma it was 8 nM.

For `COc1c(\C(C)=C/C=C/C(C)=C/C(=O)O)cc(C(C)(C)C)cc1C(C)(C)C`, the Ki in assay [1] stood at 10000 nM; in assay [3] it was 1 nM. In addition, in assay [2], the Synergy was found to be 3 fold. Also, the figures for the EC50 (in assay [5]; on RXR alpha/PPAR gamma) were 36 nM and 7 nM, respectively.

`CCC(C)(C)c1cc(\C(C)=C/C=C/C(C)=C/C(=O)O)c(OCC(F)F)c(C(C)(C)CC)c1` returned an inhibition constant (Ki) in assay [1] of 10000 nM. Further, in [2], the Synergy was determined as 1 fold. This molecule also returned an IC50 in assay [4] of 16 nM. The EC50 at RXR alpha/PPAR gamma stood at 11 nM.

Regarding `CCCOc1c(\C(C)=C/C=C/C(C)=C/C(=O)O)cc(C(C)C)cc1C(C)C`, the Ki worked out at 10000 nM in [1] and 3 nM in assay [3]. For the same molecule, in assay [2], the Synergy was determined as 2 fold. In addition, half-maximal inhibition in assay [4] (IC50) was put at 4 nM. Also, it took 5 nM to reach a half-maximal effect on RXR alpha/PPAR gamma (EC50).

On to `CCCCOc1c(\C(C)=C/C=C/C(C)=C/C(=O)O)cc(C(C)C)cc1C(C)C`, for which the Activity came to 63 mg/dL in the assay listed under Rattus norvegicus [6], 502 mg/dL in the assay with Mus musculus [8] and 72 ng/mL in the assay filed under Rattus norvegicus [9]. Also, the figures for the Ki in assay [1] and in [3] were 10000 nM and 4 nM, respectively. This molecule also showed a Normalization in the assay with Mus musculus [7] of 33%. The Synergy in assay [2] was 1 fold. In assay [10], this molecule had an Activation of 0.6 fold. The molecule further yielded an IC50 in assay [4] of 4 nM. A half-maximal effect at RXR alpha/PPAR gamma (EC50) was put at 12 nM.

Take `CCC(C)(C)c1cc(\C(C)=C/C=C/C(C)=C/C(=O)O)c(OC)c(C(C)(C)CC)c1`: the Ki in [1] came out at 10000 nM; in assay [3], 2 nM. Further, the Synergy in assay [2] came to 2 fold. For the same molecule, the EC50 in assay [5] was 506 nM; at RXR alpha/PPAR gamma it was 6 nM.

For `CCCOc1c(\C(C)=C/C=C/C(C)=C/C(=O)O)cc(C(C)(C)C)cc1C(C)(C)C`, the inhibition constant Ki in assay [1] worked out at 10000 nM; in assay [3], 14 nM. Further, in [2], the Synergy amounted to 1 fold. The IC50 in [4] is 43 nM. Moreover, it took 154 nM to reach a half-maximal effect on RXR alpha/PPAR gamma (EC50).

With `CCOc1c(\C(C)=C/C=C/C(C)=C/C(=O)O)cc(C(C)(C)CC)cc1C(C)(C)CC`, the Ki is 2500 nM in assay [1] and 2 nM in assay [3]. Further, in assay [2], the Synergy came to 2 fold. Moreover, half-maximal inhibition in [4] (IC50) required 17 nM. On RXR alpha/PPAR gamma, this molecule gave a concentration giving a half-maximal response (EC50) of 9 nM.

`CN(CCOc1ccc(CC2SC(=O)NC2=O)cc1)c1ccccn1.O=C(O)/C=C\C(=O)O` (stereo not drawn) [ROSIGLITAZONE MALEATE]: the results for the Activity in the assay listed under Rattus norvegicus [6], in the assay on Mus musculus [8] and in the assay listed under Rattus norvegicus [9] were 78 mg/dL, 412 mg/dL and 70 ng/mL, respectively. In the assay with Mus musculus [7], this molecule returned a Normalization of 100%. Besides, the NB entry in assay [11] is “inactive”.

For `C/C(=C/C=C/C(C)=C/C(=O)O)c1cc(C(C)C)cc(C(C)C)c1OCC(F)F`, the Ki was found to be 10000 nM in assay [1] and 2 nM in [3]. In addition, the Synergy in [2] worked out at 3 fold. Further, in assay [4], inhibition was half-maximal at 1 nM (IC50). Also, the EC50 at RXR alpha/PPAR gamma was 10 nM.

For the molecule `CCOc1c(\C(C)=C/C=C/C(C)=C/C(=O)O)cc(C(C)C)cc1C(C)C`, the inhibitory constant (Ki) in assay [1] was 10000 nM; in [3], 2 nM. Moreover, in assay [2], the Synergy was found to be 5 fold. Besides, the EC50 in assay [5] came out at 2 nM; at RXR alpha/PPAR gamma it was 1 nM.

Regarding `C/C(=C/C=C/C(C)=C/C(=O)O)c1cc(C(C)C)cc(C(C)C)c1OCC(F)(F)F`, the figures for the Ki in assay [1] and in assay [3] were 1860 nM and 3 nM, respectively. Moreover, the Synergy in [2] is 2 fold. The same molecule registered a 50% inhibitory concentration (IC50) in [4] of 6 nM. At RXR alpha/PPAR gamma, a half-maximal response (EC50) required 3 nM.

With `CCOc1c(\C(C)=C/C=C/C(C)=C/C(=O)O)cc(C(C)(C)C)cc1C(C)(C)C`, the figures for the Activity in the assay filed under Rattus norvegicus [6], in the assay on Mus musculus [8] and in the assay listed under Rattus norvegicus [9] were 92 mg/dL, 412 mg/dL and 25 ng/mL, respectively. The results for the Ki in [1] and in [3] were 10000 nM and 11 nM, respectively. In the assay with Mus musculus [7], this molecule came in with a Normalization of 100%. In [2], the Synergy was found to be 3 fold. In addition, the EC50 in [5] is 18 nM; at RXR alpha/PPAR gamma it was 2 nM. Further, the Activation in assay [10] turned out to be 2.04 fold. Further, in assay [4], the half-inhibitory concentration (IC50) worked out at 8 nM.

With `Cc1cc2c(cc1C1(c3ccc(C(=O)O)cn3)CC1)C(C)(C)CCC2(C)C`, the Activity in the assay listed under Rattus norvegicus [6] came out at 152 mg/dL; with Mus musculus [8] it was 400 mg/dL; in the assay filed under Rattus norvegicus [9], 37 ng/mL. This molecule also showed a Normalization in the assay on Mus musculus [7] of 101%. The Synergy in assay [2] was 7 fold. Besides, in assay [10], the Activation is listed as 6.3 fold.

As to `C/C(=C/C=C/C(C)=C/C(=O)O)c1cc(C(C)C)cc(C(C)C)c1OCCF`, the Ki in assay [1] worked out at 10000 nM; in assay [3], 1 nM. Further, the Synergy in assay [2] stood at 4 fold. The EC50 amounted to 7 nM in [5] and 4 nM on RXR alpha/PPAR gamma. In [4], the IC50 is 4 nM.

Turning to `C/C(=C/C=C/C(C)=C/C(=O)O)c1cc(C(C)(C)C)cc(C(C)(C)C)c1OCC(F)F`, the Activity in the assay listed under Rattus norvegicus [6] was found to be 75 mg/dL; in the assay with Mus musculus [8], 409 mg/dL; in the assay listed under Rattus norvegicus [9], 70 ng/mL. The molecule also showed a Ki in assay [1] of 10000 nM. The same molecule displayed a Normalization in the assay on Mus musculus [7] of 101%. Besides, in [2], the Synergy amounted to 2 fold. This molecule also had an Activation in [10] of 1.2 fold.
